This note sets out measurements from patent US10081606B2, “Heteroaryl compounds and uses thereof” (Celgene CAR LLC, priority 2010, dated 2018).

For test [1], the system named is H1975 cells (EGFR L858R/T790M). As to the kind of experiment: Cell proliferation (CellTiter Glo, 72 hr), H1975. The class given is cell-based, human. As to conditions: for GI50: Homo sapiens, NCI-H1975; for Ratio WT/mutant: proliferation GI50, WT (A431) vs H1975. Here is the method:
(§1) A431 human epidermoid carcinoma, H1975 human NSCLC and HCC827 human NSCLC adenocarcinoma cells were obtained from the American Type Culture Center (Manassas, Va.). A431 cells were grown in DMEM (Invitrogen, Carlsbad, Calif.) supplemented with 10% FBS (HyClone, South Logan, Utah) and 1% Penicillin-Streptomycin (P/S, Lonza, Walkersville, Md.).
(§2) Growth inhibition (GI50) values were determined by Graph Pad Prism.

Test [2] deals with A431 cells (WT EGFR). In words: Cell proliferation (CellTiter Glo, 72 hr), A431. It is filed as cell-based. The conditions noted are these: Homo sapiens, A-431. How it is done: as §1, §2
In test [3] the target is pEGFR in H1975 cells (Homo sapiens (Human), UniProt P00533, L858R/T790M). The conditions noted are these: 500 nM for 1 hr, 0-24 hr.
Test [4] deals with T1, EGFR T790M/L858R (Homo sapiens (Human), UniProt P00533, L858R/T790M). As to conditions: MS analysis.
In test [5] the test system is HCC827 cells (EGFR delE746-A750). As to the kind of experiment: Cell proliferation (CellTiter Glo, 72 hr), HCC827. The class given is cell-based, human. As to conditions: for GI50: Homo sapiens; for Ratio WT/mutant: proliferation GI50, WT (A431) vs HCC827. How it is done: as §1, §2
Background: ATP-based viability assays read luminescence as a measure of living cells.

In test [6] the target is EGFR L858R/T790M (H1975 cells) (Homo sapiens (Human), UniProt P00533, L858R/T790M). As to the kind of experiment: EGFR signaling immunoblot (1 hr) in H1975 cells. As to conditions: signaling EC50, WT (A431) vs H1975. The class given is cell-based. Here is the method: as §1
(§3) All primary antibodies were obtained from Cell Signaling (Danvers, Mass.) and used at 1:1000. Secondary antibodies were used at 1:10,000. Goat anti-mouse IgG IRDye 800CW antibody was obtained from LiCor Biosciences (Lincoln, Nebr.) and goat anti-rabbit IgG Alexa Fluor 680 was obtained from Invitrogen.
(§4) Cells were grown in 12-well plates (Corning, Coring, N.Y.) to 90% confluence and then incubated in low-serum (0.1% FBS) media for 16-18 hr. […] A431 cells were then stimulated with 50 ng/ml EGF (Peprotech, Rocky Hill, N.J.) for 15 min. After treatment, cell monolayers were washed with cold PBS (Invitrogen) and immediately lysed by scrapping into 60 uL cold Cell Extraction Buffer (Invitrogen) supplemented with Complete Protease inhibitors (Roche, Indianapolis, Ind.) and PhosphoSTOP (Roche) phosphatase inhibitors.
(§5) Phospho-protein signals were quantitated using Odyssey Infrared Imaging (Li-Cor Biosciences).
Blots were normalized as indicated above. […] Normalized data was fitted using a sigmoidal curve analysis program (Graph Pad Prism version 5) with variable Hill slope to determine the EC50 values.

For test [7], the target named is EGFR delE746-A750 (HCC827 cells) (Homo sapiens (Human), UniProt P00533, DEL746-750). In words: EGFR signaling immunoblot (1 hr) in HCC827 cells. The class given is cell-based. The conditions noted are these: signaling EC50, WT (A431) vs HCC827. How it is done: as §1, §3, §4, §5
Blots were normalized as indicated above. […]
A general note: A western blot detects proteins with antibodies after separation by electrophoresis.

The target of test [8] is T1, EGFR T790M/L858R. In words: Omnia biochemical assay, EGFR-T790M/L858R. As to conditions: biochemical IC50, WT EGFR vs T790M/L858R.
Protocol: Kinase reactions were started with the addition of 45 μL of the ATP/Tyr-Sox peptide substrate mix and monitored every 71 seconds for 60 minutes at λex360/λem485 in a Synergy^4 plate reader from BioTek (Winooski, Vt.).
The mark [9] stands for this setting: H1975 cells, 72 hr, read-out: H1975 GI50.
The mark [10] stands for this setting: A431 cells, 72 hr, read-out: WT EGFR GI50.
The mark [11] stands for this setting: HCC827 cells, 72 hr, read-out: HCC827 GI50.

Like-named read-outs stand apart in the source and are kept apart here.

As to `C=CC(=O)Nc1cccc(Oc2nc(Nc3ccccc3OC)ncc2C(F)(F)F)c1` [Compound I-2, N-(3-(2-(2-methoxyphenylamino)-5-(trifluoromethyl)pyrimidin-4-yloxy)phenyl)acrylamide], the GI50 (as a rule, the concentration giving 50% growth inhibition) in test [1] (setting [9]) was above 1000 nM; in test [2] (setting [10]), above 1000 nM; in test [5] (setting [11]), 100 to 500 nM. In addition, the “duration of action after washout (pEGFR inhibition)” value in test [3] is “prolonged duration of action”. Besides, in test [4], the “covalent modification of EGFR T790M/L858R” value is on record as “covalently modify”.

With `C=CC(=O)Nc1cccc(Nc2nc(Nc3ccc(OC)c(OC)c3OC)ncc2Cl)c1` [Compound I-4, N-(3-(5-chloro-2-(2,3,4-trimethoxyphenylamino)pyrimidin-4-ylamino)phenyl)acrylamide], the GI50 in test [1] (setting [9]) is 100 to 500 nM; in test [2] (setting [10]), above 1000 nM; in test [5] (setting [11]), 100 to 500 nM.

Turning to `C=CC(=O)Nc1cccc(Nc2nc(Nc3ccc(OC)c(OC)c3OC)ncc2Br)c1` [Compound I-5, N-(3-(5-bromo-2-(2,3,4-trimethoxyphenylamino)pyrimidin-4-ylamino)phenyl)acrylamide], the GI50 in test [1] (setting [9]) was above 1000 nM; in test [2] (setting [10]), above 1000 nM; in test [5] (setting [11]) it was 100 to 500 nM. Further, the “Ratio WT/mutant” value is listed as above 1 in test [1], above 50 in test [6] and above 20 in test [5].

As for `C=CC(=O)Nc1cccc(Oc2nc(Nc3cccc(OC)c3OC)ncc2Br)c1` [Compound I-6, N-(3-(5-bromo-2-(2,3-dimethoxyphenylamino)pyrimidin-4-yloxy)phenyl)acrylamide], the GI50 in test [1] (setting [9]) is 500 to 1000 nM; in test [2] (setting [10]), above 1000 nM; in test [5] (setting [11]) it was 500 to 1000 nM. In addition, the “Ratio WT/mutant” value in test [1] and in test [5] was above 1 throughout.

In the case of `C=CC(=O)Nc1cccc(Oc2nc(Nc3ccc(OC)c(OC)c3OC)ncc2Br)c1` [Compound I-8, N-(3-(5-bromo-2-(2,3,4-trimethoxyphenylamino)pyrimidin-4-yloxy)phenyl)acrylamide], the GI50 was above 1000 nM in test [1] (setting [9]), above 1000 nM in test [2] (setting [10]) and 100 to 500 nM in test [5] (setting [11]).

Consider `C=CC(=O)Nc1cccc(Oc2nc(Nc3ccc(OC)cc3OC)ncc2C(F)(F)F)c1` [Compound I-9, N-(3-(2-(2,4-dimethoxyphenylamino)-5-(trifluoromethyl)pyrimidin-4-yloxy)phenyl)acrylamide], for which the GI50 in test [1] (setting [9]) is 100 to 500 nM; in test [2] (setting [10]) it was above 1000 nM; in test [5] (setting [11]), 100 to 500 nM.

Turning to `C=CC(=O)Nc1cccc(Oc2nc(Nc3ccc(OC)c(OC)c3OC)ncc2C(F)(F)F)c1` [Compound I-10, N-(3-(5-(trifluoromethyl)-2-(2,3,4-trimethoxyphenylamino)pyrimidin-4-yloxy)phenyl)acrylamide], the GI50 is 100 to 500 nM in test [1] (setting [9]), above 1000 nM in test [2] (setting [10]) and 100 to 500 nM in test [5] (setting [11]). The “Ratio WT/mutant” value is listed as above 10 in test [1], above 50 in test [6] and above 10 in test [5].

Turning to `C=CC(=O)Nc1cccc(Nc2nc(Nc3ccc(OC)c(OC)c3OC)ncc2C(F)(F)F)c1` [Compound I-11, N-(3-(5-(trifluoromethyl)-2-(2,3,4-trimethoxyphenylamino)pyrimidin-4-ylamino)phenyl)acrylamide], the GI50 in test [1] (setting [9]) was 100 to 500 nM; in test [1] (Table 2, H1975 cells (L858R/T790M), read-out: Comparative GI50, H1975) it was 100 to 500 nM; in test [2] (setting [10]) it was above 1000 nM; in test [2] (Table 2, A431 cells (WT EGFR), read-out: Comparative GI50, A431), above 1000 nM; in test [5] (setting [11]), 10 to 100 nM; in test [5] (Table 2, HCC827 cells (delE746-A750), read-out: Comparative GI50, HCC827) it was 10 to 100 nM. The “Ratio WT/mutant” value in test [1] is on record as above 10; in test [7] it was above 5; in test [6], above 50; in test [5], above 40.

As to `C=CC(=O)Nc1cccc(Oc2nc(Nc3ccc(OC)cc3OC)ncc2Br)c1` [Compound I-13, N-(3-(5-bromo-2-(2,4-dimethoxyphenylamino)pyrimidin-4-yloxy)phenyl)acrylamide], the GI50 was 500 to 1000 nM in test [1] (setting [9]), above 1000 nM in test [2] (setting [10]) and 100 to 500 nM in test [5] (setting [11]).

With `C=CC(=O)Nc1cccc(Nc2nc(Nc3cccc(OC)c3OC)ncc2Br)c1` [Compound I-14, N-(3-(5-bromo-2-(2,3-dimethoxyphenylamino)pyrimidin-4-ylamino)phenyl)acrylamide], in test [8], the “Ratio WT/mutant” value is on record as above 50.

Take `C=CC(=O)Nc1cccc(Oc2nc(Nc3ccc(OC)cc3OC)ncc2Cl)c1` [Compound I-15, N-(3-(5-chloro-2-(2,4-dimethoxyphenylamino)pyrimidin-4-yloxy)phenyl)acrylamide]: the GI50 in test [1] (setting [9]) was above 1000 nM; in test [2] (setting [10]), above 1000 nM; in test [5] (setting [11]), 100 to 500 nM.

In the case of `C=CC(=O)Nc1cccc(Nc2nc(Nc3cccc(OC)c3OC)ncc2C(F)(F)F)c1` [Compound I-16, N-(3-(2-(2,3-dimethoxyphenylamino)-5-(trifluoromethyl)pyrimidin-4-ylamino)phenyl)acrylamide], the GI50 in test [1] (setting [9]) is above 1000 nM; in test [2] (setting [10]) it was above 1000 nM; in test [5] (setting [11]), 500 to 1000 nM.

Regarding `C=CC(=O)Nc1cccc(Oc2nc(Nc3cccc(OC)c3OC)ncc2Cl)c1` [Compound I-17, N-(3-(5-chloro-2-(2,3-dimethoxyphenylamino)pyrimidin-4-yloxy)phenyl)acrylamide], the “Ratio WT/mutant” value in test [8] is reported as above 35.

Take `C=CC(=O)Nc1cccc(Nc2nc(Nc3ccccc3OC)ncc2Cl)c1` [Compound I-18, N-(3-(5-chloro-2-(2-methoxyphenylamino)pyrimidin-4-ylamino)phenyl)acrylamide]: the GI50 is above 1000 nM in test [1] (setting [9]), above 1000 nM in test [2] (setting [10]) and 500 to 1000 nM in test [5] (setting [11]). Also, the “Ratio WT/mutant” value in test [1] is given as above 1; in test [5] it was above 5.

On to `C=CC(=O)Nc1cccc(Oc2nc(Nc3ccccc3OC)ncc2F)c1` [Compound I-19, N-(3-(5-fluoro-2-(2-methoxyphenylamino)pyrimidin-4-yloxy)phenyl)acrylamide], for which the GI50 in test [1] (setting [9]) was above 1000 nM; in test [2] (setting [10]) it was above 1000 nM; in test [5] (setting [11]), 100 to 500 nM. In addition, the “Ratio WT/mutant” value in test [1] is above 1; in test [5] it was above 10.

For the compound `C=CC(=O)Nc1cccc(Nc2nc(Nc3ccc(OC)cc3OC)ncc2Br)c1` [Compound I-20, N-(3-(5-bromo-2-(2,4-dimethoxyphenylamino)pyrimidin-4-ylamino)phenyl)acrylamide], the GI50 in test [1] (setting [9]) is above 1000 nM; in test [2] (setting [10]), above 1000 nM; in test [5] (setting [11]) it was 100 to 500 nM. Besides, the “Ratio WT/mutant” value in test [1] was above 1; in test [5] it was above 10.

Consider `C=CC(=O)Nc1cccc(Nc2nc(Nc3ccc(OC)cc3OC)ncc2Cl)c1` [Compound I-21, N-(3-(5-chloro-2-(2,4-dimethoxyphenylamino)pyrimidin-4-ylamino)phenyl)acrylamide], for which the figures for the GI50 in test [1] (setting [9]), in test [2] (setting [10]) and in test [5] (setting [11]) were above 1000 nM, above 1000 nM and 500 to 1000 nM, respectively. Further, the “Ratio WT/mutant” value in test [1] is recorded as above 1; in test [6], above 5; in test [5] it was above 5.

As to `C=CC(=O)Nc1cccc(Nc2nc(Nc3ccccc3OC)ncc2Br)c1` [Compound I-22, N-(3-(5-bromo-2-(2-methoxyphenylamino)pyrimidin-4-ylamino)phenyl)acrylamide], the GI50 in test [1] (setting [9]) was 500 to 1000 nM; in test [2] (setting [10]), above 1000 nM; in test [5] (setting [11]), 500 to 1000 nM.

Regarding `C=CC(=O)Nc1cccc(Oc2nc(Nc3cccc(OC)c3OC)ncc2C(F)(F)F)c1` [Compound I-23, N-(3-(2-(2,3-dimethoxyphenylamino)-5-(trifluoromethyl)pyrimidin-4-yloxy)phenyl)acrylamide], the GI50 in test [1] (setting [9]), in test [2] (setting [10]) and in test [5] (setting [11]) was above 1000 nM throughout.
